Data on 28 molecules can be found in patent US12649751B2 (Arcus Biosciences, Inc., priority 2022, dated 2026).

For one test, the target named is HPK1 (Homo sapiens, UniProt Q92918). The test is described as follows: HPK1 Biochemical Assay (ADP-Glo luminescence; low ATP 10 μM or high ATP 200 μM). Conditions: 2 nM HPK1, 10 μM ATP; read-out: Biochemical Potency (low ATP). The procedure: Dose-response assays were performed in Corning® Low Volume 384-well assay plates containing 100 nL of 22 serial 2-fold compound dilutions. Wells containing DMSO alone were used as negative control. A kinase mixture (5 μL) containing 2 nM HPK1 (or 5 nM for high ATP assay) in assay buffer (50 mM Hepes pH 7.4, 10 mM MgCl2, 0.01% Brij-15, 0.01% bovine serum albumin, and 1 mM dithiothreitol) was added to the assay plates and incubated at 25° C. for 1 hour. Wells without HPK1 were used as positive control. A […] of 10 μM ATP (or 200 μM for high ATP) and 0.2 μg/μL […] was then added to the wells, resulting in a 10 μL total reaction volume. Following incubation of the assay plates at 25° C. for 1 hour, 10 μL of ADP-Glo reagent was added to the wells and the plates were incubated at 25° C. for a further 40 minutes (or 1 hour for high ATP assay). Finally, 20 μL of Kinase Detection Reagent was added, and the plates were incubated for another 30 minutes at 25° C. An Envision plate reader was then used to detect the luminescence signals. IC50 values were determined by fitting the data to a standard 4-parameter logistic equation. The results are summarized in the Biochemical Potency columns of Tables 4 and 5 below (Biochemical Potency (high ATP); Biochemical Potency (low ATP)).
Chain of HPK1 (Q92918 whole entry, species assumed): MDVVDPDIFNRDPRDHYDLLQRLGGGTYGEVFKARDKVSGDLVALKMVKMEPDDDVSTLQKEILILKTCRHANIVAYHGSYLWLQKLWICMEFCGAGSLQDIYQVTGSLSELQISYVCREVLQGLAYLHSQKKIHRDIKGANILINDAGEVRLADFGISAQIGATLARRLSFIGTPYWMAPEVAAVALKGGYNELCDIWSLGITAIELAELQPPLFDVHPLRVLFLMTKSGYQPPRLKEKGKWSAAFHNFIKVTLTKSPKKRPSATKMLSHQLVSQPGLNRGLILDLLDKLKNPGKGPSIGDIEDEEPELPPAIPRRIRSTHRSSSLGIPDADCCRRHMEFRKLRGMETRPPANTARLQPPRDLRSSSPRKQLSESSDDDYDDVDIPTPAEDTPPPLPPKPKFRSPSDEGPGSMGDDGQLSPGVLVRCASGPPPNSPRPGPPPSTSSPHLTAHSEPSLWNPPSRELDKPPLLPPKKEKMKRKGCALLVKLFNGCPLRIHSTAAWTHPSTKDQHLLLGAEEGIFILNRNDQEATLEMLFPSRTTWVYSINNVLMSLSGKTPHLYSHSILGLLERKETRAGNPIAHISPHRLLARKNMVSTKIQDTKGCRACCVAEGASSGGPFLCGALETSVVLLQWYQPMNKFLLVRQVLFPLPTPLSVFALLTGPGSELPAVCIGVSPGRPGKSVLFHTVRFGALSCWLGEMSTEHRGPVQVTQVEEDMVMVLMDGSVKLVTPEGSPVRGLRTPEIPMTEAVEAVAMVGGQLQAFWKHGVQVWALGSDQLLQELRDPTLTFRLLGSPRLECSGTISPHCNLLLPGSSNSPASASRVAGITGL
(In general: In ADP-Glo the light output rises with the ADP produced.)
As for `FC1(F)CCN(Cc2nc(Nc3cc4nc(-c5ccncc5)sc4cn3)ccc2C2CCOCC2)C1` [Example 218, 6-[(3,3-Difluoropyrrolidin-1-yl)methyl]-5-(oxan-4-yl)-N-[2-(pyridin-4-yl)-[1,3]thiazolo[5,4-c]pyridin-6-yl]pyridin-2-amine], the IC50 is under 100 nM.
For `C[C@H]1CCC(=O)N1c1nc2cc(Nc3ccc(C4CCOCC4)c(CN4CCCC4)n3)ncc2s1` [Example 208, (5S)-5-Methyl-1-(6-{[5-(oxan-4-yl)-6-[(pyrrolidin-1-yl)methyl]pyridin-2-yl]amino}-[1,3]thiazolo[5,4-c]pyridin-2-yl)pyrrolidin-2-one], the IC50 was under 100 nM.
Turning to `Cc1cc(Nc2cc3nc(-c4ncccc4C)sc3cn2)nc(O[C@H]2CCCNC2)c1` [Example 161, 4-Methyl-N-[2-(3-methylpyridin-2-yl)-[1,3]thiazolo[5,4-c]pyridin-6-yl]-6-[(3S)-piperidin-3-yloxy]pyridin-2-amine], the IC50 was under 100 nM.
Still for that read-out and setting: with `CN(C)S(=O)(=O)c1cccc(-c2nc3cc(Nc4cccc(N5C[C@@H]6C[C@H]5CN6)n4)ncc3s2)c1` [Example 293] the figure was under 100 nM.
As for `Cc1cccnc1-c1nc2cc(Nc3ccc(N4CCC(F)(F)C4)c(C(C)(C)N)n3)ncc2s1` [Example 272, 6-(2-Aminopropan-2-yl)-5-(3,3-difluoropyrrolidin-1-yl)-N-[2-(3-methylpyridin-2-yl)-[1,3]thiazolo[5,4-c]pyridin-6-yl]pyridin-2-amine], the IC50 was under 100 nM.
For the molecule `Cc1cccnc1-c1nc2cc(Nc3ccc(C4CCOCC4)c(NCc4nccn4C)n3)ncc2s1` [Example 251, N2-[(1-Methyl-1H-imidazol-2-yl)methyl]-N6-[2-(3-methylpyridin-2-yl)-[1,3]thiazolo[5,4-c]pyridin-6-yl]-3-(oxan-4-yl)pyridine-2,6-diamine], the IC50 is under 100 nM.
Still for that read-out and setting: next, `O[C@H]1CCN(c2nc3cc(Nc4ccc(C5CCOCC5)c(CN5CCCC5)n4)ncc3s2)C1` [Example 233, (3S)-1-(6-{[5-(Oxan-4-yl)-6-[(pyrrolidin-1-yl)methyl]pyridin-2-yl]amino}-[1,3]thiazolo[5,4-c]pyridin-2-yl)pyrrolidin-3-ol]: 100 to 1000 nM; `Cc1cccnc1-c1nc2cc(Nc3ccc(N4CCC(F)(F)C4)c(N4C[C@@H]5C[C@H]4CN5C)n3)ncc2s1` [Example 281, 5-(3,3-Difluoropyrrolidin-1-yl)-6-[(1S,4S)-5-methyl-2,5-diazabicyclo[2.2.1]heptan-2-yl]-N-[2-(3-methylpyridin-2-yl)-[1,3]thiazolo[5,4-c]pyridin-6-yl]pyridin-2-amine]: under 100 nM; `Cc1ccc(Nc2cc3nc(-c4cnn(C5CCOCC5)c4)sc3cn2)nc1CN1CCCC1` [Example 39, 5-Methyl-N-{2-[1-(oxan-4-yl)-1H-pyrazol-4-yl]-[1,3]thiazolo[5,4-c]pyridin-6-yl}-6-[(pyrrolidin-1-yl)methyl]pyridin-2-amine]: under 100 nM.
In the case of `Cc1cccnc1-c1nc2cc(Nc3ccnc(N4C[C@@H]5C[C@H]4CN5C)n3)ncc2s1` [Example 158, 2-[(1S,4S)-5-Methyl-2,5-diazabicyclo[2.2.1]heptan-2-yl]-N-[2-(3-methylpyridin-2-yl)-[1,3]thiazolo[5,4-c]pyridin-6-yl]pyrimidin-4-amine], the IC50 is under 100 nM.
On the same count and under the same terms, with `COc1ccc(N2C[C@@H]3C[C@H]2CN3C)nc1Nc1cc2nc(-c3ncccc3C)sc2cn1` [Example 118, 3-Methoxy-6-[(1S,4S)-5-methyl-2,5-diazabicyclo[2.2.1]heptan-2 yl]-N-[2-(3-methylpyridin-2-yl)-[1,3]thiazolo[5,4-c]pyridin-6-yl]pyridin-2-amine] the figure was under 100 nM.
Take `Cc1cccnc1-c1nc2cc(Nc3cccc(CN4CCCC4)n3)ncc2s1` [Example 52, N-[2-(3-Methylpyridin-2-yl)-[1,3]thiazolo[5,4-c]pyridin-6-yl]-6-[(pyrrolidin-1-yl)methyl]pyridin-2-amine]: the IC50 was under 100 nM.
The same measure, in the same setting: with `Cc1ccc(Nc2cc3nc(-c4cccnc4)sc3cn2)nc1CN1CCCC1` [Example 53, 5-Methyl-N-[2-(pyridin-3-yl)-[1,3]thiazolo[5,4-c]pyridin-6-yl]-6-[(pyrrolidin-1-yl)methyl]pyridin-2-amine] the figure was under 100 nM; with `CN1C[C@@H]2C[C@H]1CN2c1cncc(Nc2cc3nc(-c4ccnc(N5CC[C@@H](O)C5)c4)sc3cn2)n1` [Example 263, (3R)-1-{4-[6-({6-[(1S,4S)-5-Methyl-2,5-diazabicyclo[2.2.1]heptan-2-yl]pyrazin-2-yl}amino)-[1,3]thiazolo[5,4-c]pyridin-2-yl]pyridin-2-yl}pyrrolidin-3-ol], under 100 nM; with `c1n[nH]cc1-c1nc2cc(Nc3ccc(N4CCOCC4)c(CN4CCCC4)n3)ncc2s1` [Example 25, 5-(Morpholin-4-yl)-N-[2-(1H-pyrazol-4-yl)-[1,3]thiazolo[5,4-c]pyridin-6-yl]-6-[(pyrrolidin-1-yl)methyl]pyridin-2-amine], under 100 nM.
The same measure, in the same setting: next, `Cc1cc(Nc2cc3nc(-c4cccc(C)n4)sc3cn2)nc(O[C@H]2CCNC2)c1` [Example 163, 4-Methyl-N-[2-(6-methylpyridin-2-yl)-[1,3]thiazolo[5,4-c]pyridin-6-yl]-6-[(3S)-pyrrolidin-3-yloxy]pyridin-2-amine]: under 100 nM; `Cc1ccc(Nc2cc3nc(-n4nccc4C)sc3cn2)nc1CN[C@@H]1CCOC1` [Example 199, 5-Methyl-N-[2-(5-methyl-1H-pyrazol-1-yl)-[1,3]thiazolo[5,4-c]pyridin-6-yl]-6-({[(3R)-oxolan-3-yl]amino}methyl)pyridin-2-amine]: under 100 nM.
Still for that read-out and setting: next, `Cc1cc(Nc2cc3nc(-c4ncccc4C)sc3cn2)nc(OC2CCNCC2)c1` [Example 174, 4-Methyl-N-[2-(3-methylpyridin-2-yl)-[1,3]thiazolo[5,4-c]pyridin-6-yl]-6-(piperidin-4-yloxy)pyridin-2-amine]: under 100 nM; `Cc1cc(Nc2cc3nc(-c4cccnc4C)sc3cn2)nc(O[C@H]2CCNC2)c1` [Example 179, 4-Methyl-N-[2-(2-methylpyridin-3-yl)-[1,3]thiazolo[5,4-c]pyridin-6-yl]-6-[(3S)-pyrrolidin-3-yloxy]pyridin-2-amine]: under 100 nM; `Fc1ccc(-c2nc3cc(Nc4ccc(N5CCOCC5)c(CN5CCCC5)n4)ncc3s2)cc1` [Example 22, N-[2-(4-Fluorophenyl)-[1,3]thiazolo[5,4-c]pyridin-6-yl]-5-(morpholin-4-yl)-6-[(pyrrolidin-1-yl)methyl]pyridin-2-amine]: under 100 nM.
Consider `Fc1cccc(F)c1-c1nc2cc(Nc3ccc(N4CCC(F)(F)C4)c(CN4CCCC4)n3)ncc2s1` [Example 11, N-[2-(2,6-Difluorophenyl)-[1,3]thiazolo[5,4-c]pyridin-6-yl]-5-(3,3-difluoropyrrolidin-1-yl)-6-[(pyrrolidin-1-yl)methyl]pyridin-2-amine], for which the IC50 was in the range of 100 to 1000 nM.
Same read-out and setting: next, `Cc1cc(Nc2cc3nc(-c4ccc(C#N)cc4)sc3cn2)nc(O[C@H]2CCNC2)c1` [Example 187, 4-(6-{[4-Methyl-6-(pyrrolidin-3-yloxy)pyridin-2-yl]amino}-[1,3]thiazolo[5,4-c]pyridin-2-yl)benzonitrile]: under 100 nM; `O[C@@H]1CCN(c2nc3cc(Nc4ccc(C5CCOCC5)c(CN5CCCC5)n4)ncc3s2)C1` [Example 234, (3R)-1-(6-{[5-(Oxan-4-yl)-6-[(pyrrolidin-1-yl)methyl]pyridin-2-yl]amino}-[1,3]thiazolo[5,4-c]pyridin-2-yl)pyrrolidin-3-ol]: 100 to 1000 nM; `CS(=O)(=O)Nc1cccc(-c2nc3cc(Nc4cccc(N5C[C@@H]6C[C@H]5CN6)n4)ncc3s2)c1` [Example 287, N-{3-[6-({6-[(1S,4S)-2,5-diazabicyclo[2.2.1]heptan-2-yl]pyridin-2-yl}amino)-[1,3]thiazolo[5,4-c]pyridin-2-yl]phenyl}methanesulfonamide]: under 100 nM.
Still for that read-out and setting: with `Cc1ccc(Nc2cc3nc(-c4ncccc4C)sc3cn2)nc1CCN1CCCC1` [Example 62, 5-Methyl-N-[2-(3-methylpyridin-2-yl)-[1,3]thiazolo[5,4-c]pyridin-6-yl]-6-[2-(pyrrolidin-1-yl)ethyl]pyridin-2-amine] the figure was 100 to 1000 nM; with `CN1C[C@@H]2C[C@H]1CN2c1nccc(Nc2cc3nc(-c4ccnc5c4cnn5C)sc3cn2)n1` [Example 294, N-(2-{1-methyl-1H-pyrazolo[3,4-b]pyridin-4-yl}-[1,3]thiazolo[5,4-c]pyridin-6-yl)-2-[(1 S,4S)-5-methyl-2,5-diazabicyclo[2.2.1]heptan-2-yl]pyrimidin-4-amine], under 100 nM; with `Cc1ccc(Nc2cc3nc(-c4ncccc4C)sc3cn2)nc1CN1CCCC1(C)C` [Example 47, 6-[(2,2-Dimethylpyrrolidin-1-yl)methyl]-5-methyl-N-[2-(3-methylpyridin-2-yl)-[1,3]thiazolo[5,4-c]pyridin-6-yl]pyridin-2-amine], under 100 nM.

The test is the same for the next values; noted with them: HPK1 ADP-Glo assay, low ATP (10 μM ATP, 2 nM HPK1); read-out: Biochemical Potency (low ATP).
Turning to `Cc1ccnn1-c1nc2cc(Nc3ccc4c(n3)C(C)(N)CC4)ncc2s1` (stereo not shown) [Example 579], the IC50 is under 100 nM.
